Source: patent publication US6984664B2, “Tertiary amino compounds having opioid receptor affinity” (Euro-Celtique, S.A., priority 1999, dated 2006)

Legend:
Assay type in all cases: binding
Mu opioid receptor = Mu opioid receptor (Homo sapiens, UniProt P35372); assay: Affinity at the μ receptor ([35S]GTPγS membrane assay); conditions: opioid receptor membranes, 30 min room temperature, read-out: calc Ki (nM) μ
Experimental: (§1) Affinity at the μ, k and δ receptors for preferred compounds was obtained according to the following assays:
(§2) Mu, kappa or delta opioid receptor membrane solution was prepared by sequentially adding final concentrations of 0.075 μg/μl of the desired membrane protein, 10 μg/ml saponin, 3 μM GDP and 0.20 nM [^35S]GTPγS to binding buffer (100 mM NaCl, 10 mM MgCl2, 20 mM HEPES, pH 7.4) on ice. The prepared membrane solution (190 μl/well) was transferred to 96-shallow well polypropylene plates containing 10 μl of 20× concentrated stock solutions of agonist prepared in DMSO. Plates were incubated for 30 min at room temperature with shaking. Reactions were terminated by rapid filtration onto 96-well Unifilter GF/B filter plates (Packard) using a 96-well tissue harvester (Brandel) and followed by three filtration washes with 200 μl ice-cold binding buffer (10 mM NaH2PO4, 10 mM Na2HPO4, pH 7.4). Filter plates were subsequently dried at 50° C. for 2–3 hours. Fifty μl/well scintillation cocktail (MicroScint20, Packard) was added and plates were counted in a Packard Top-Count for 1 min/well.
(§3) Data were analyzed using the curve fitting functions in GraphPad PRISM™, v.

kappa opioid receptor = kappa opioid receptor (Homo sapiens, UniProt P41145); assay: Affinity at the k receptor ([35S]GTPγS membrane assay); conditions: opioid receptor membranes, 30 min room temperature, read-out: calc Ki (nM) k
Sequence of kappa opioid receptor (P41145 whole entry): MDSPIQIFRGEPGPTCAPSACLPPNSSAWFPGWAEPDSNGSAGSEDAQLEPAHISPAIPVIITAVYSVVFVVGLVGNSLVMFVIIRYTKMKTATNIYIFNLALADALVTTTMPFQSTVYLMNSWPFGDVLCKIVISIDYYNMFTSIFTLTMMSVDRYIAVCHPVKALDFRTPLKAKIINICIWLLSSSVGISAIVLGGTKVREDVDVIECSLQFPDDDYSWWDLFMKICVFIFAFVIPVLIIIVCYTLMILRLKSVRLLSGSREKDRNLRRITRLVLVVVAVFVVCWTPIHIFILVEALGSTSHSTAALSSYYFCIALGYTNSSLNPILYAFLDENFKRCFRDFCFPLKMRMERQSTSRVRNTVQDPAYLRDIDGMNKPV
Experimental: as §1, §2, §3

delta opioid receptor = delta opioid receptor (Homo sapiens, UniProt P41143); assay: Affinity at the δ receptor ([35S]GTPγS membrane assay); conditions: opioid receptor membranes, 30 min room temperature, read-out: calc Ki (nM) δ2
Sequence of delta opioid receptor (P41143 whole entry): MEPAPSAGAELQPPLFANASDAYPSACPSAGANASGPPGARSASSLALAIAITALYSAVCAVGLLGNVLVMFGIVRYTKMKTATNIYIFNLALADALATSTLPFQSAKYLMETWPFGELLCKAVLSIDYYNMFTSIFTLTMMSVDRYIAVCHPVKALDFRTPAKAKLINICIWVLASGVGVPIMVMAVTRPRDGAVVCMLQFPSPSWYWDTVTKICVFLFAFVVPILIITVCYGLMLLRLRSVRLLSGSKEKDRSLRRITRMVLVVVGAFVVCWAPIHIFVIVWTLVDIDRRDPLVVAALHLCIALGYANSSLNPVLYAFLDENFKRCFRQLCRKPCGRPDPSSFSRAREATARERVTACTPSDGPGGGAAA
Experimental: as §1, §2, §3

Sequence of Mu opioid receptor (P35372 whole entry): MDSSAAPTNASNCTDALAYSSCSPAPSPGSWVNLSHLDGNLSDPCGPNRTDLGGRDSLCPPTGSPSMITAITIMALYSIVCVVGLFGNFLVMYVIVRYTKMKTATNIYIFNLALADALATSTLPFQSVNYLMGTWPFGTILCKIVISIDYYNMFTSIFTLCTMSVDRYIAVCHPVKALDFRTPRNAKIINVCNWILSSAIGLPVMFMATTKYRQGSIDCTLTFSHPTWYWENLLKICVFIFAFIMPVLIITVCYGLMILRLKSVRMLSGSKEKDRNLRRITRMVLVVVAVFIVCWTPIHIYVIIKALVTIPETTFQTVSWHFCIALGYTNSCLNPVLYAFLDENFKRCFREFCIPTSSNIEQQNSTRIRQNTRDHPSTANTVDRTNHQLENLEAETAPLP

CCCCN(CCCC)CCN(Cc1ccccc1)C(=O)Cc1ccccc1 [1-[1-benzyl-1-(2-phenyl-1-oxo-ethyl)-amino]-2-dibutylamino-ethyl]
Ki (Mu opioid receptor): 40 nM
Ki (kappa opioid receptor): 3500 nM
Ki (delta opioid receptor): > 10000 nM
